# Source: patent US10351578B2, “Heterocyclic-substituted pyridinopyrimidinone derivative as CDK inhibitor and use thereof” (Shanghai Xunhe Pharmaceutical Technology Co. Ltd., priority 2016, dated 2019)
# Tests used:
# [1] = biological target: T1, CDK4 protein kinase (GST-CDK4(1-303 end)) (Homo sapiens, UniProt P11802); test: CDK4 protein kinase activity, Caliper mobility shift assay; format: biochemical; details: substrate Peptide FAM-P8, 28° C. for 3 h
# T1 construct: GST-CDK4(1-303 end); GST (N)
# T1 sequence (P11802 whole entry): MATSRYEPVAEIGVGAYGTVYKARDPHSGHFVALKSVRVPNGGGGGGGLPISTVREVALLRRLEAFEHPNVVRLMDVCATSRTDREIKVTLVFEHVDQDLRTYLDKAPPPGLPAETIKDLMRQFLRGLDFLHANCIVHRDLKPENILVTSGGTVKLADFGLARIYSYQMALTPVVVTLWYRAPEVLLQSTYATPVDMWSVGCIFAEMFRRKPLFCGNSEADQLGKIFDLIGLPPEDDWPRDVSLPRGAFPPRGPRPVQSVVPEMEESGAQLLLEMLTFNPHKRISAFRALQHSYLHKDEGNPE
# T1 sequence (P30281 whole entry partner): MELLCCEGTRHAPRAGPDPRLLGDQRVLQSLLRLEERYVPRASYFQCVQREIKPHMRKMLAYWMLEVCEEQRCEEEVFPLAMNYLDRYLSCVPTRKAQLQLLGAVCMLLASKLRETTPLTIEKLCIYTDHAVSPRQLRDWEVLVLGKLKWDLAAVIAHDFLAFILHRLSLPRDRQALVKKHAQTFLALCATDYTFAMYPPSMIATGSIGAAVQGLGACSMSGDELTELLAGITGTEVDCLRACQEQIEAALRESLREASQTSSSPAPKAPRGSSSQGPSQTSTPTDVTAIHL
# Experimental: (§1) Activity Assay: The CDK4 protein kinase activity was measured using the Caliper mobility shift assay (see J. Biomol. Screen, 2009, PP31). The test compound was dissolved in DMSO and diluted with a kinase buffer solution (20 mM HEPES-pH 7.5, 0.01% Triton X-100, 10 mM MgCl2, 2 mM DTT) and 5 μL of the compound at 5-fold final concentration of reaction dissolved in 10% DMSO was added in a 384-well plate. The compound-free control well was 5 μL of 10% DMSO, and the no-activity control well was 5 μL of kinase buffer. 10 μL of a 2.5-fold diluted CDK4 enzyme solution (GST-CDK4(1-303 end)) was added and incubated at room temperature for 10 min, and then 10 μL of the 2.5-fold diluted substrate solution Peptide FAM-P8 was added. The reaction was stopped by adding 25 μL of stop solution after incubation at 28° C. for 3 h, and the conversion rate data was read on a Caliper EZ Reader II (Caliper Life Sciences) and the conversion rate was converted to inhibition rate data according to above method. Among them, the inhibition rate %=(max−conversion)/(max−min)×100%.
# [2] = biological target: T2, CDK6 protein kinase (GST-CDK6(1-326 end)) (Homo sapiens, UniProt Q00534); test: CDK6 protein kinase activity, Caliper mobility shift assay; format: biochemical; details: substrate Peptide FAM-P8, 28° C. for 3 h
# T2 construct: GST-CDK6(1-326 end); GST (N)
# T2 sequence (Q00534 whole entry): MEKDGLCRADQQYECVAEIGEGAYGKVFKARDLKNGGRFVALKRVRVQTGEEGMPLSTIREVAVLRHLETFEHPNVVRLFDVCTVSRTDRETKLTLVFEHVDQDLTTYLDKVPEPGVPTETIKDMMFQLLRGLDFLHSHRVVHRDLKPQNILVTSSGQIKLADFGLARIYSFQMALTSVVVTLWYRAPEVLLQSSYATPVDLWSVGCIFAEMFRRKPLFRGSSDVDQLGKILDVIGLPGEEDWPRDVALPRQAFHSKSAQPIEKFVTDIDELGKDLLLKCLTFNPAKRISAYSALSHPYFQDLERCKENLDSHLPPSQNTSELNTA
# T2 sequence (P30281 whole entry partner): as the sequence (P30281 whole entry partner) above
# Experimental: as §1, with “CDK6” for “CDK4”, “(GST-CDK6(1-326” for “(GST-CDK4(1-303”
IC50 [1] [nM],IC50 [2] [nM],Compound
≤ 20,≤ 20,"CC1(C)Oc2cnc(Nc3ccc(N4CCNCC4)cn3)nc2N(c2cccs2)C1=O [Compound I-29, 6,6-dimethyl-8-(2-thienyl)-2-(5-(1-piperazinyl)-pyridin-2-amino)-6H-pyrimido[5,4-b][1,4]oxazin-7(8H)-one]"
≤ 20,≤ 20,"8′-cyclopentyl-2′-(5-(4-ethyl-1-piperazinyl)-pyridin-2-amino)spiro[cycloprop-1,6′-pyrimido[5,4-b][1,4]oxazin]-7′(8′H)-one [Compound I-25]"
≤ 20,≤ 20,"CCN1C(=O)C(C)(CC)Oc2cnc(Nc3ccc(CN4CCN(C)CC4)cn3)nc21 (stereo not drawn) [Compound I-16, 6-methyl-6,8-diethyl-2-(5-(4-methyl-1-piperazinyl)methyl-pyridin-2-amino)-6H-pyrimido[5,4-b][1,4]oxazin-7(8H)-one]"
≤ 20,> 500,"CCC(C)N1C(=O)C(C2CCCC2)Sc2cnc(Nc3ccc(CN4CCNCC4)cn3)nc21 (stereo not drawn) [Compound I-17, 6-cyclopentyl-8-sec-butyl-2-(5-(1-piperazinyl)methyl-pyridin-2-amino)-6H-pyrimido[5,4-b][1,4]thiazin-7(8H)-one]"
≤ 20,20 to 100,"O=C1N(C2CCCC2)c2nc(Nc3ccc(N4CCNCC4)cn3)ncc2OC12CCC2 [Compound I-5, 8′-cyclopentyl-2′-(5-(1-piperazinyl)-pyridin-2-amino)spiro[cyclobut-1,6′-pyrimido[5,4-b][1,4]oxazin]-7′(8′H)-one]"
≤ 20,≤ 20,"CC1(C)Oc2cnc(Nc3ccc(N4CCNCC4)cn3)nc2N(C2CCCC2)C1=O [Compound I-2, 6,6-Dimethyl-8-cyclopentyl-2-(5-(1-piperazinyl)-pyridin-2-amino)-6H-pyrimido[5,4-b][1,4]oxazin-7(8H)-one]"
≤ 20,> 500,CC1(C)Oc2cnc(Nc3ccc(N4CCNCC4)cn3)nc2N(c2ccco2)C1=O [Compound I-32]
≤ 20,20 to 100,"CCC(CC)N1C(=O)C(C)(C)Oc2cnc(Nc3ccc(N4CCNCC4)cn3)nc21 [Compound I-37, 6,6-dimethyl-8-(3-pentyl)-2-(5-(1-piperazinyl)-pyridin-2-amino)-6H-pyrimido[5,4-b][1,4]oxazin-7(8H)-one]"
≤ 20,20 to 100,"CC1(C)Oc2cnc(Nc3ccc(N4CCN(C5CCCC5)CC4)cn3)nc2N(C2CCCC2)C1=O [Compound I-21, 6,6-dimethyl-8-cyclopentyl-2-(5-(4-cyclopentyl-1-piperazinyl)-pyridin-2-amino)-6H-pyrimido[5,4-b][1,4]oxazin-7(8H)-one]"
≤ 20,≤ 20,"O=C1C(C2CC2)Oc2cnc(Nc3ccc(N4CCNCC4)cn3)nc2N1C1CCCC1 (stereo not drawn) [Compound I-13, 6-cyclopropyl-8-cyclopentyl-2-(5-(1-piperazinyl)-pyridin-2-amino)-6H-pyrimido[5,4-b][1,4]oxazin-7(8H)-one]"
≤ 20,≤ 20,"CCC(C)(C)N1C(=O)C(C2CCCCC2)Oc2cnc(Nc3ccc(CN4CCN(C5CC5)CC4)cn3)nc21 (stereo not drawn) [Compound I-18, 6-cyclohexyl-8-tert-amyl-2-(5-(4-cyclopropyl-1-piperazinyl)methyl-pyridin-2-amino)-6H-pyrimido[5,4-b][1,4]oxazin-7(8H)-one]"
≤ 20,20 to 100,"O=C1N(C2CCCC2)c2nc(Nc3ccc(N4CCNCC4)cn3)ncc2OC12CCCCCC2 [Compound I-8, 8′-cyclopentyl-2′-(5-(1-piperazinyl)-pyridin-2-amino)spiro[cyclohepta-1,6′-pyrimido[5,4-b][1,4]oxazin]-7′(8′H)-one]"
≤ 20,100 to 500,"CCN1CCN(Cc2ccc(Nc3ncc4c(n3)N(C3CCCC3)C(=O)C(C(C)=O)O4)nc2)CC1 (stereo not drawn) [Compound I-26, 6-acetyl-8-cyclopentyl-2-(5-(4-ethyl-1-piperazinyl)methyl-pyridin-2-amino)-6H-pyrimido[5,4-b][1,4]oxazin-7(8H)-one]"
≤ 20,≤ 20,"CC1(C)Oc2cnc(Nc3ccc(N4CCNCC4)cn3)nc2N(c2ccc(Cl)cc2)C1=O [Compound I-36, 6,6-dimethyl-8-(4-chlorophenyl)-2-(5-(1-piperazinyl)-pyridin-2-amino)-6H-pyrimido[5,4-b][1,4]oxazin-7(8H)-one]"
≤ 20,20 to 100,"O=C1N(C2CCCC2)c2nc(Nc3ccc(N4CCNCC4)cn3)ncc2OC1(F)F [Compound I-12, 6,6-difluoro-8-cyclopentyl-2-(5-(1-piperazinyl)-pyridin-2-amino)-6H-pyrimido[5,4-b][1,4]oxazin-7(8H)-one]"
≤ 20,≤ 20,"CCN1CCN(Cc2ccc(Nc3ncc4c(n3)N(C3CCCC3)C(=O)C(C)(C)O4)nc2)CC1 [Compound I-3, 6,6-Dimethyl-8-cyclopentyl-2-(5-(4-ethyl-1-piperazinyl)methyl-pyridin-2-amino)-6H-pyrimido[5,4-b][1,4]oxazin-7(8H)-one]"
≤ 20,20 to 100,"CCN1CCN(Cc2ccc(Nc3ncc4c(n3)N(C)C(=O)C(C(C)C)O4)nc2)CC1 (stereo not drawn) [Compound I-15, 6-isopropyl-8-methyl-2-(5-(4-ethyl-1-piperazinyl)methyl-pyridin-2-amino)-6H-pyrimido[5,4-b][1,4]oxazin-7(8H)-one]"
≤ 20,20 to 100,CCN1CCN(Cc2ccc(Nc3ncc4c(n3)N(C3CCCC3)C(=O)C3(CCC3)O4)nc2)CC1 [Compound I-28]
≤ 20,20 to 100,"CCCN1CCN(Cc2ccc(Nc3ncc4c(n3)N(C(C)C(C)C)C(=O)C(C3CCCCCC3)S4)nc2)CC1 (stereo not drawn) [Compound I-19, 6-cycloheptyl-8-(3-methyl-2-butyl)-2-(5-(4-n-propyl-1-piperazinyl)methyl-pyridine-2-amino)-6H-pyrimido[5,4-b][1,4]thiazin-7(8H)-one]"
≤ 20,20 to 100,"O=C1N(C2CCCC2)c2nc(Nc3ccc(N4CCNCC4)cn3)ncc2OC12CCCC2 [Compound I-6, 8′-cyclopentyl-2′-(5-(1-piperazinyl)-pyridin-2-amino)spiro[cyclopenta-1,6′-pyrimido[5,4-b][1,4]oxazin]-7′(8′H)-one]"
≤ 20,≤ 20,"CC1(C)Oc2cnc(Nc3ccc(N4CCN(C5CCCCC5)CC4)cn3)nc2N(C2CCCC2)C1=O [Compound I-22, 6,6-dimethyl-8-cyclopentyl-2-(5-(4-cyclohexyl-1-piperazinyl)-pyridin-2-amino)-6H-pyrimido[5,4-b][1,4]oxazin-7(8H)-one]"
20 to 100,20 to 100,"CC1(C)Oc2cnc(Nc3ccc(N4CCNCC4)cn3)nc2N(c2ccccc2)C1=O [Compound I-35, 6,6-dimethyl-8-phenyl-2-(5-(1-piperazinyl)-pyridin-2-amino)-6H-pyrimido[5,4-b][1,4]oxazin-7(8H)-one]"
≤ 20,≤ 20,"CCN1CCN(Cc2ccc(Nc3ncc4c(n3)N(C3CCCC3)C(=O)C(C#N)O4)nc2)CC1 (stereo not drawn) [Compound I-27, 6-cyano-8-cyclopentyl-2-(5-(4-ethyl-1-piperazinyl)methyl-pyridin-2-amino)-6H-pyrimido[5,4-b][1,4]oxazin-7(8H)-one]"
≤ 20,20 to 100,"CC(=O)C1Oc2cnc(Nc3ccc(N4CCNCC4)cn3)nc2N(C2CCCC2)C1=O (stereo not drawn) [Compound I-9, 6-acetyl-8-cyclopentyl-2-(5-(1-piperazinyl)-pyridin-2-amino)-6H-pyrimido[5,4-b][1,4]oxazin-7(8H)-one]"
≤ 20,≤ 20,"CN(C)C(=O)C1Oc2cnc(Nc3ccc(N4CCNCC4)cn3)nc2N(C2CCCC2)C1=O (stereo not drawn) [Compound I-33, N,N-dimethyl-6-carboxamide-8-cyclopentyl-2-(5-(1-piperazinyl)-pyridin-2-amino)-6H-pyrimido[5,4-b][1,4]oxazin-7(8H)-one]"
≤ 20,≤ 20,"O=C1N(C2CCCC2)c2nc(Nc3ccc(N4CCNCC4)cn3)ncc2OC12CCCCC2 [Compound I-7, 8′-cyclopentyl-2′-(5-(1-piperazinyl)-pyridin-2-amino)spiro[cyclohex-1,6′-pyrimido[5,4-b][1,4]oxazin]-7′(8′H)-one]"
≤ 20,20 to 100,"O=C1C(C(F)(F)F)Oc2cnc(Nc3ccc(N4CCNCC4)cn3)nc2N1C1CCCC1 (stereo not drawn) [Compound I-11, 6-trifluoromethyl-8-cyclopentyl-2-(5-(1-piperazinyl)-pyridin-2-amino)-6H-pyrimido[5,4-b][1,4]oxazin-7(8H)-one]"
